According to patent US8410130B2, “Synthesis of 8H-3A-aza-cyclopenta [A ]indenes and 5,10-dihydropyrrolo[1,2-B]isoquinolines derivatives and their use as antitumor therapeutic agents” (Academia Sinica, priority 2007, dated 2013):
Read-outs that look alike come from different tables or passages of the source.

Key:
[1] = tested on: CCRF-CEM human lymphoblastic leukemia cells; assay: In vitro cytotoxicity, XTT assay, 72-hr incubation; format: cell-based
Source text: (§1) Human colon carcinoma HCT-116 cells, human prostate adenocarcinoma PC-3 and adenocarcinoma SK-OV-3 cells were obtained from American Type Culture Collection (ATCC, Rockville, Md.). Human mammary carcinoma (MX-1) tumor cells were obtained from MSKCC cell bank. The CCRF-CEM human lymphoblastic leukemia cells and their vinblastine resistant subline (CCRF-CEM/VBL, 680-fold resistance in vitro) were obtained from Dr. William Beck of the University of Illinois, Chicago, and CCRF-CEM/Taxol (330-fold resistance in vitro). Resistant cells CCRF-CEM/taxol were produced by exposing the parent cells to increasing sublethal concentration (IC50-IC90) of paclitaxel for six months.
(§2) In preparation for in vitro cytotoxicity assays, cells were cultured at an initial density 2-5×10^4 cells per milliliter. They were maintained in a 5% CO2-humidified atmosphere at 37° C. in RPMI medium 1640 (GIBCO/BRL) containing penicillin (100 units/mL), streptomycin (100 μg/mL, GIBCO/BRL), and 5% heat-inactivated FBS. For cells grown in suspension (such as CCRF-CEM and its sublines), cytotoxicity was measured, by using XTT microculture method in 96-well microtiter plates (Scudiero D A et al., Cancer Res. 1988, 48, 4827-4833). For solid tumor cells growing in a monolayer (such as MX-1 and HCT-116), cytotoxicity of the drug was determined, in duplicate, in 96-well microtiter plates by using the sulforhodamine B method (Skehan P et al., J. Natl. Cancer Inst 1990, 82, 1107-1112). For both methods, the absorbance of each well was measured with a microplate reader (Power Wave XS, Bio-Tek, Winooski, Vt.) after 72-hr incubation as described previously (Chou T-C et al., Proc. Natl. Acad. Sci. USA 2001, 98, 8113-8118). Dose-effect relationship data from 6 to 7 concentrations of each drug, in duplicate, were analyzed by using a computer program (Chou T-C et al., ComboSyn, Inc., Paramus, N J. 2005) based on the median-effect principle and plot (Chou T-C et al., Adv. Enzyme Regul. 1984, 22, 27-55; Chou T-C, Pharmacol. Rev. 2006, 58, 621-681).
(§3) The IC50 is defined by the concentration required to inhibit tumor cell growth by 50%. […] The growth inhibition of the compounds disclosed herein against human lymphoblastic leukemic cells (CCRF-CEM) and its drug-resistant sublines (resistant to vinblastine and taxol, CCRF-CEM/VBL and CCRF-CEM/taxol, respectively) is also shown in Table 5. […] Thus, the compounds disclosed herein are effective against multiple drug resistant tumors.

CCRF-CEM/VBL = assay: In vitro cytotoxicity, XTT assay, vinblastine resistant subline; format: cell-based, human; conditions: for IC50: XTT assay, 72-hr incubation; for fold of cross-resistant, CCRF-CEM/VBL vs IC50 of the parent cell line: numbers in brackets
Source text: as §1, §2, §3

CCRF-CEM/Taxol = assay: In vitro cytotoxicity, XTT assay, taxol resistant subline; format: cell-based, human; conditions: for IC50: XTT assay, 72-hr incubation; for fold of cross-resistant, CCRF-CEM/Taxol vs IC50 of the parent cell line: numbers in brackets
Source text: as §1, §2, §3

[2] = tested on: Human colon carcinoma HCT-116 cells; assay: In vitro cytotoxicity, sulforhodamine B (SRB) assay; format: cell-based
Source text: as §1, §2, §3

[3] = tested on: Human mammary carcinoma (MX-1) tumor cells; assay: as above; format: cell-based; conditions: 72-hr incubation
Source text: as §1, §2, §3

[4] = Homo sapiens, HCT-116, 72-hr incubation

Compound	IC50 [1] [nM]	IC50 (CCRF-CEM/VBL) [nM]	fold of cross-resistant, CCRF-CEM/VBL vs IC50 of the parent cell line (CCRF-CEM/VBL)	IC50 (CCRF-CEM/Taxol) [nM]	fold of cross-resistant, CCRF-CEM/Taxol vs IC50 of the parent cell line (CCRF-CEM/Taxol)	IC50 ([2]; 72-hr incubation) [nM]	IC50 [3] [nM]	IC50 ([1]; Homo sapiens, CCRF-CEM) [nM]	IC50 (CCRF-CEM/VBL; Homo sapiens, CCRF-CEM) [nM]	IC50 (CCRF-CEM/Taxol; Homo sapiens, CCRF-CEM) [nM]	IC50 [2, 4] [nM]	IC50 ([3]; Homo sapiens) [nM]
CNC(=O)OCc1c(COC(=O)NC)c(-c2ccc(F)c(F)c2)n2c1Cc1ccccc1C2 [DA-1113, methylcarbamic acid 3-(3,4-difluorophenyl)-2-methylcarbamoyloxymethyl-5,10-dihydropyrrolo[1,2-b]isoquinolin-1-methyl ester]	488	519	[1.06x]	643	[1.32x]	358	2710					
OCc1c(CO)c(-c2ccc(Cl)cc2)n2c1Cc1ccccc1C2 [DA-1116, [3-(4-Chlorophenyl)-2-hydroxymethyl-5,10-dihydropyrrolo[1,2-b]isoquinolin-1-yl]methanol]			[0.91x]		[1.00x]			600	543	601	2640	3270
CNC(=O)OCc1c(COC(=O)NC)c(-c2ccc(Cl)cc2)n2c1Cc1ccccc1C2 [DA-1117, methylcarbamic acid 3-(4-chlorphenyl)-2-methylcarbamoyloxymethyl-5,10-dihydropyrrolo[1,2-b]isoquinolin-1-ylmethyl ester]	191	208	[1.09x]	216	[1.13x]	356	1170					
COc1ccccc1-c1c(CO)c(CO)c2n1-c1ccccc1C2 [DA-1123, (2-Hydroxymethyl-3-(2-methoxyphenyl)-8H-3a-aza-cyclopenta[a]inden-1-yl)methanol]			[1.89x]		[2.68x]			1010	1900	2680	13400	8640
CNC(=O)OCc1c(COC(=O)NC)c(-c2ccc(OC)c(OC)c2)n2c1Cc1ccccc1-2 [DA-1125, Methylcarbamic acid 3-(3,4-dimethoxyphenyl)-2-methylcarbamoyloxymethyl-8H-3a-aza-cyclopenta[a]inden-1-ylmethyl ester]			[1.07x]		[1.42x]			350	374	497	680	1840
COc1cccc(OC)c1-c1c(CO)c(CO)c2n1-c1ccccc1C2 [DA-1126, (3-(2,6-Dimethoxyphenyl)-2-hydroxymethyl-8H-3a-aza-cyclopenta[a]inden-1-yl)methanol]			[0.03x]		[0.09x]			8140	251	741	43700	25500
CNC(=O)OCc1c(COC(=O)NC)c(-c2c(OC)cccc2OC)n2c1Cc1ccccc1-2 [DA-1127, Methylcarbamic acid 3-(2,6-dimethoxyphenyl)-2-methylcarbamoyloxymethyl-8H-3a-aza-cyclopenta[a]inden-1-ylmethyl ester]			[1.08x]		[0.96x]			640	697	616	1110	5480
COc1cc(-c2c(CO)c(CO)c3n2-c2ccccc2C3)cc(OC)c1OC [DA-1128, (2-Hydroxymethyl-3-(3,4,5-trimethoxyphenyl)-8H-3a-aza-cyclopenta[a]inden-1-yl)-methanol]			[0.56x]		[0.50x]			2050	1140	1040	30600	17600
CNC(=O)OCc1c(COC(=O)NC)c(-c2cc(OC)c(OC)c(OC)c2)n2c1Cc1ccccc1-2 [DA-1129, Methylcarbamic acid 3-(3,4,5-trimethoxyphenyl)-2-methylcarbamoyloxymethyl-8H-3a-aza-cyclopenta[a]inden-1-ylmethyl ester]			[0.71x]		[1.21x]			11800	8400	14300	1830	7250
COc1ccc(-c2c(CO)c(CO)c3n2-c2ccc(OC)cc2C3)cc1 [DA-1130, (2-hydroxymethyl-6-methoxy-3-(4′-methoxyphenyl)-8H-3a-aza-cyclopenta[a]inden-1-yl)methanol]	118	61	[0.52x]	130	[1.10x]	610	1520					
CNC(=O)OCc1c(COC(=O)NC)c(-c2ccc(OC)cc2)n2c1Cc1cc(OC)ccc1-2 [DA-1131, methylcarbamic acid 6-methoxy-3-(4-methoxyphenyl)-2-methylcarbamoyl-oxymethyl-8H-3a-aza-cyclopenta[a]inden-1-ylmethyl ester]			[1.03x]		[1.55x]			62	63.9	96.2	455	878
CC(=O)O[C@H]1C(=O)[C@@]2(C)[C@H]([C@H](OC(=O)c3ccccc3)[C@]3(O)C[C@H](OC(=O)[C@H](O)[C@@H](NC(=O)c4ccccc4)c4ccccc4)C(C)=C1C3(C)C)[C@]1(OC(C)=O)CO[C@@H]1C[C@@H]2O [Taxol, reference compound]			[330x]					1.3	429	1270	1.3	35
CC[C@]1(O)C[C@@H]2CN(CCc3c([nH]c4ccccc34)[C@@](C(=O)OC)(c3cc4c(cc3OC)N(C)[C@H]3[C@@](O)(C(=O)OC)[C@H](OC(C)=O)[C@]5(CC)C=CCN6CC[C@]43[C@@H]65)C2)C1 [Vinblastine, reference compound]					[679.5x]			0.73	78	496	1.8	2.9
